“And” between values parts separate entries of the source, which are not always exact repeats. Equal entries are not always repeated. Inconclusive results and toxic doses are left out. Rule as the data show it: active = T/C of 150% or more; inactive = T/C below 125%.
Test system: L1210 leukemia ip in BDF1 mice, survival T/C
Test: NCI In Vivo Anticancer Drug Screen. Data for tumor model L1210 Leukemia (intraperitoneal) in B6D2F1 (BDF1) mice
Conditions: endpoint: mean survival time, higher = longer survival
How it was run: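 Value reflects the ratio of survival in compound-treated mice to survival in vehicle-treated controls, with both groups carrying the same transplanted tumor.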

[1] = dose: 100.0 mg/kg/injection, schedule: Q04DX002 (ip), vehicle: Klucel (hydroxypropylcellulose) (HPC)
[2] = dose: 200.0 mg/kg/injection, schedule: Q04DX002 (ip), vehicle: Klucel (hydroxypropylcellulose) (HPC)
[3] = dose: 25.0 mg/kg/injection, schedule: Q04DX003 (ip), vehicle: saline with Tween-80
[4] = dose: 50.0 mg/kg/injection, schedule: Q04DX003 (ip), vehicle: saline with Tween-80
[5] = dose: 100.0 mg/kg/injection, schedule: Q04DX003 (ip), vehicle: saline with Tween-80
[6] = dose: 100.0 mg/kg/injection, schedule: Q04DX003 (ip), vehicle: Klucel (hydroxypropylcellulose) (HPC)
[7] = dose: 200.0 mg/kg/injection, schedule: Q04DX003 (ip), vehicle: Klucel (hydroxypropylcellulose) (HPC)
[8] = dose: 400.0 mg/kg/injection, schedule: Q04DX003 (ip), vehicle: Klucel (hydroxypropylcellulose) (HPC)
[9] = dose: 100.0 mg/kg/injection, schedule: Q01DX009 (ip), vehicle: saline with Tween-80
[10] = dose: 200.0 mg/kg/injection, schedule: Q01DX009 (ip), vehicle: saline with Tween-80
[11] = dose: 100.0 mg/kg/injection, schedule: Q01DX009 (ip), vehicle: Klucel (hydroxypropylcellulose) (HPC)
[12] = dose: 200.0 mg/kg/injection, schedule: Q01DX009 (ip), vehicle: Klucel (hydroxypropylcellulose) (HPC)
[13] = dose: 50.0 mg/kg/injection, schedule: Q01DX001 (ip), vehicle: saline
[14] = dose: 100.0 mg/kg/injection, schedule: Q01DX001 (ip), vehicle: saline
[15] = dose: 200.0 mg/kg/injection, schedule: Q01DX001 (ip), vehicle: saline
[16] = dose: 100.0 mg/kg/injection, schedule: Q04DX003 (ip), vehicle: saline
[17] = dose: 200.0 mg/kg/injection, schedule: Q04DX003 (ip), vehicle: saline
[18] = dose: 400.0 mg/kg/injection, schedule: Q04DX003 (ip), vehicle: saline
[19] = dose: 400.0 mg/kg/injection, schedule: Q01DX001 (ip), vehicle: saline

Measured: T/C

Nc1nc(N)c2nc(CNc3ccc(CC(=O)NC(CC(=O)O)C(=O)O)cc3)cnc2n1 (centres undefined)
inactive: dose: 25.0 mg/kg/injection, schedule: Q01DX009 (ip), vehicle: sodium bicarbonate 104 % of control | dose: 50.0 mg/kg/injection, schedule: Q01DX009 (ip), vehicle: sodium bicarbonate 106 % of control | dose: 100.0 mg/kg/injection, schedule: Q01DX009 (ip), vehicle: sodium bicarbonate 108 % of control

CCOC(=O)c1c(-c2ccc([N+](=O)[O-])cc2)cn(-c2ccccc2)c1C
inactive: [1] 91 % of control | [2] 97 % of control | dose: 400.0 mg/kg/injection, schedule: Q04DX002 (ip), vehicle: Klucel (hydroxypropylcellulose) (HPC) 87 % of control

C/C(=N/OC(=O)N(C)C)c1cccs1
inactive: dose: 5.0 mg/kg/injection, schedule: Q01DX001 (ip), vehicle: other 103 % of control | dose: 10.0 mg/kg/injection, schedule: Q01DX001 (ip), vehicle: other 94 % of control | dose: 20.0 mg/kg/injection, schedule: Q01DX001 (ip), vehicle: other 97 % of control | dose: 40.0 mg/kg/injection, schedule: Q01DX001 (ip), vehicle: other 92 % of control

COC(=O)c1cc(NC(=O)Nc2ccc(F)c(Cl)c2)cc(C(=O)OC)c1
inactive: dose: 100.0 mg/kg/injection, schedule: Q01DX009 (ip), vehicle: saline 98 % of control | dose: 200.0 mg/kg/injection, schedule: Q01DX009 (ip), vehicle: saline 98 % of control | dose: 400.0 mg/kg/injection, schedule: Q01DX009 (ip), vehicle: saline 102 % of control

Nc1nc2c(ncn2C2OC(COP(=O)(O)OC3C(COP(=O)(O)O)OC(n4cnc5c(=O)[nH]c(N)nc54)C3O)C(O)C2O)c(=O)[nH]1 (centres undefined) (tested in a mixture with another compound)
inactive: dose: 2.5 mg/kg/injection, schedule: Q01DX009 (ip), vehicle: other 108 % of control | dose: 5.0 mg/kg/injection, schedule: Q01DX009 (ip), vehicle: other 105 % of control | dose: 10.0 mg/kg/injection, schedule: Q01DX009 (ip), vehicle: other 111 % of control

C[N+](C)(C)Cc1ncccc1OC(=O)N(c1ccccc1)c1ccccc1
inactive: [3] 96 % of control | [4] 96 % of control | [5] 96 % of control and 101 % of control

C/C=C/C(=O)Nc1cccc(Cl)c1
inactive: dose: 100.0 mg/kg/injection, schedule: Q01DX009 (ip), vehicle: other 92 % of control | dose: 200.0 mg/kg/injection, schedule: Q01DX009 (ip), vehicle: other 100 % of control

C=CCc1c(C)nc(N)[nH]c1=O
inactive: [6] 104 % of control | [7] 107 % of control | [8] 102 % of control

O=C[CH2][Hg][Cl]
inactive: dose: 0.78 mg/kg/injection, schedule: Q01DX009 (ip), vehicle: saline with Tween-80 96 % of control | dose: 1.56 mg/kg/injection, schedule: Q01DX009 (ip), vehicle: saline with Tween-80 96 % of control | dose: 3.13 mg/kg/injection, schedule: Q01DX009 (ip), vehicle: saline with Tween-80 93 % of control

CCCCCCCCCCCC(=O)NC(=S)Nc1ccc(C)c(Cl)c1
inactive: [6] 89 % of control | [7] 95 % of control | [8] 90 % of control

Cc1cc(CSC2=NCCCN2)c(C)cc1CSC1=NCCCN1
inactive: dose: 1.56 mg/kg/injection, schedule: Q01DX009 (ip), vehicle: saline 88 % of control | dose: 3.13 mg/kg/injection, schedule: Q01DX009 (ip), vehicle: saline 103 % of control | dose: 6.25 mg/kg/injection, schedule: Q01DX009 (ip), vehicle: saline 92 % of control

CN(C)C(=O)Nc1ccc2c(c1)OCO2
inactive: dose: 75.0 mg/kg/injection, schedule: Q01DX009 (ip), vehicle: Klucel (hydroxypropylcellulose) (HPC) 107 % of control | dose: 100.0 mg/kg/injection, schedule: Q01DX001 (ip), vehicle: Klucel (hydroxypropylcellulose) (HPC) 111 % of control | dose: 150.0 mg/kg/injection, schedule: Q01DX009 (ip), vehicle: Klucel (hydroxypropylcellulose) (HPC) 110 % of control | dose: 200.0 mg/kg/injection, schedule: Q01DX001 (ip), vehicle: Klucel (hydroxypropylcellulose) (HPC) 104 % of control | dose: 300.0 mg/kg/injection, schedule: Q01DX009 (ip), vehicle: Klucel (hydroxypropylcellulose) (HPC) 102 % of control

CN=C(N)c1ccc(N=C(N)c2ccc(C(N)=Nc3ccc(C(N)=NC)cc3)c(Cl)c2)cc1
inactive: dose: 7.5 mg/kg/injection, schedule: Q01DX Z (oral), vehicle: saline 101 % of control | dose: 15.0 mg/kg/injection, schedule: Q01DX Z (oral), vehicle: saline 98 % of control | dose: 30.0 mg/kg/injection, schedule: Q01DX Z (oral), vehicle: saline 101 % of control | dose: 60.0 mg/kg/injection, schedule: Q01DX Z (oral), vehicle: saline 101 % of control

Nc1ccc2c(c1)/C(=N/O)c1ccccc1-2
inactive: dose: 100.0 mg/kg/injection, schedule: Q01DX001 (ip), vehicle: carboxymethylcellulose (CMC) 105 % of control | dose: 200.0 mg/kg/injection, schedule: Q01DX001 (ip), vehicle: carboxymethylcellulose (CMC) 97 % of control | dose: 400.0 mg/kg/injection, schedule: Q01DX001 (ip), vehicle: carboxymethylcellulose (CMC) 100 % of control

CN(C)c1ccc(/C=N/NC(=O)CNC(=O)Nc2nccs2)c(Cl)c1
inactive: dose: 50.0 mg/kg/injection, schedule: Q01DX009 (ip), vehicle: saline with Tween-80 100 % of control | [9] 89 % of control | [10] 89 % of control

C=CC[N+](C)(CC=C)CC[N+](C)(CC=C)CC=C
inactive: dose: 50.0 mg/kg/injection, schedule: Q01DX009 (ip), vehicle: water 93 % of control | dose: 100.0 mg/kg/injection, schedule: Q01DX009 (ip), vehicle: water 95 % of control | dose: 100.0 mg/kg/injection, schedule: Q04DX003 (ip), vehicle: water 94 % of control | dose: 200.0 mg/kg/injection, schedule: Q04DX003 (ip), vehicle: water 96 % of control

CS(=O)(=O)Oc1c(Cl)cc(S(=O)(=O)F)cc1Cl
inactive: [11] 104 % of control | [12] 102 % of control

C/C(=N\N=C(/C)c1cccc(Br)c1)c1cccc(Br)c1
inactive: [6] 92 % of control | [7] 90 % of control | [8] 95 % of control

O=C1c2ccccc2C(=O)C1(Br)Br
inactive: [13] 106 % of control | [14] 97 % of control | [15] 101 % of control

CCC1CCCCC1=O (centres undefined)
inactive: [9] 98 % of control | [5] 110 % of control | [10] 97 % of control | dose: 200.0 mg/kg/injection, schedule: Q04DX003 (ip), vehicle: saline with Tween-80 111 % of control | dose: 400.0 mg/kg/injection, schedule: Q01DX009 (ip), vehicle: saline with Tween-80 101 % of control | dose: 400.0 mg/kg/injection, schedule: Q04DX003 (ip), vehicle: saline with Tween-80 94 % of control

CCOC(CCCN=CN(C)C)OCC
inactive: [16] 102 % of control | [17] 100 % of control | [18] 102 % of control

CC1CNC(=S)S1 (centres undefined)
inactive: [11] 105 % of control | [6] 107 % of control | [12] 100 % of control | [7] 102 % of control | [8] 102 % of control

Cc1n[n+]([O-])c(C)cc1[N+](=O)[O-]
inactive: [1] 112 % of control | [2] 101 % of control

Nc1ncnc(N)c1NC(=O)c1ccc(OCCOc2ccccc2)c(Cl)c1
inactive: [3] 89 % of control | [4] 93 % of control | [5] 98 % of control

CC[Si](Cl)(CC)CCCl
inactive: [16] 98 % of control | [17] 97 % of control | [18] 117 % of control

CCOC(=O)C(N)CS (centres undefined)
inactive: [14] 106 % of control | [15] 97 % of control | [19] 101 % of control

COc1nc(OC)c(OP(=O)(OC)OC)c(OC)n1
inactive: [13] 95 % of control | [14] 98 % of control | [15] 89 % of control | [19] 95 % of control

— PubChem BioAssay AID248 (DTP/NCI, 2004)
